Experimental data reported in paper PMC3989318, “Strong Vaccine-Induced CD8 T-Cell Responses Have Cytolytic Function in a Chimpanzee Clearing HCV Infection” (PLoS ONE, 2014).
Read-outs that look alike come from different tables or passages of the source. Where no end group is shown, it is not given here.

Key:
Patr-A*03∶01 [1] = molecular target: T1, Patr-A*03∶01 (Pan troglodytes, UniProt P13748); experiment: cell-based peptide-binding-competition-assay, Patr-A*03∶01; design: species or system chimpanzee (Pan troglodytes); conditions: competition with 500nM biotinylated indicator peptide […], overnight, europium-streptavidin DELFIA
T1 construct: expressed in transfected cells; host or cells: K562 or 721.221 cells
Procedure: A cell-based peptide-binding-competition-assay was performed as previously described. In this assay, peptides are tested for binding to transfected cell lines expressing chimpanzee class-I molecules, while competing with a biotin-labeled reference-peptide. […] After overnight incubation, excess peptide was removed by washing and indicator-peptide bound to cells was quantified using the DELFIA-system and the Victor3 1420 multilabel counter (Perkin Elmer). The binding affinity of the indicator peptide was verified using its unlabeled peptide as competitor, this is referred to as standardized competitor [15].

expanded CD8 T-cells = experiment: intracellular cytokine staining of expanded CD8 T-cells after peptide restimulation; assay type: cell-based, chimpanzee (Pan troglodytes); conditions: two weeks after the final vaccine boost
Description: For stimulation and expansion of HCV-specific cells, two different NS3-peptide-pools were compiled: NS3vaccine was a mixture of 15-mer peptides with 11 amino acids overlap, covering the NS3-sequence of the vaccine constructs; NS3challenge was a mixture of 15-mer peptides with 11 amino acids overlap covering the NS3-variants observed in the inoculum. Identification of NS3 epitopes within NS3 was first performed via the matrix setup and confirmed in a second assay using individual peptides (peptide-sequences are listed in Table S1).
Cells isolated before infection were expanded and tested for response against peptide-pool NS3vaccine, whereas cells isolated after challenge were tested against peptide-pool NS3challenge. PBMCs isolated at the day of challenge were stimulated in two separate cultures with either NS3vaccine or NS3challenge. […]
The cytokine production profile of HCV-specific T-cell lines was determined by intracellular cytokine staining (ICS) after restimulation with NS3-peptides. […] Cell staining was analyzed on a FACSAria (BD Bioscience) and DIVA software Version 6.1.1.

Patr-A*03∶01 [2] = molecular target: T1, Patr-A*03∶01; design: method as in PMID 20696916; conditions: unlabeled indicator peptide as competitor; ref [15]; read-out: IC50 of standardized competitor; cited from earlier work
[3] = MHC class I transfected K562 or 721.221 cells, regression curves of three independent experiments

For `CC(C)C[C@H](NC(=O)[C@@H](NC(=O)[C@H](C)NC(=O)[C@H](C)N)[C@@H](C)O)C(=O)NCC(=O)N[C@@H](Cc1ccccc1)C(=O)NCC(=O)N[C@@H](C)C(=O)N[C@@H](Cc1ccc(O)cc1)C(=O)O`, which IC50 (Patr-A*03∶01 [1]; [3]) is on record?
The IC50 was 200 nM.

With `CSCC[C@H](NC(=O)[C@H](Cc1ccc(O)cc1)NC(=O)[C@H](C)NC(=O)CNC(=O)[C@H](Cc1ccccc1)NC(=O)CNC(=O)[C@@H](N)CC(C)C)C(=O)N[C@@H](CO)C(=O)N[C@@H](CCCCN)C(=O)O` as the compound, how does the IC50 (Patr-A*03∶01 [1]; [3]) read?
The IC50 was 30 nM.

With “IRTGVRTITTGGPIT [p64, 15-mer NS3 peptide]” as the compound, how does the “cytokine induction in expanded CD8 T-cells” value (expanded CD8 T-cells; Vac1) read?
Its value is “did not induce cytokine production”.

What about the “cytokine induction in expanded CD8 T-cells” value (expanded CD8 T-cells; Vac2) of the same compound?
The value was “moderate dual IFNγ/IL-2 and IFNγ/TNFa cytokine production”.

For KGGLRPRAG [reference compound], which IC50 (Patr-A*03∶01 [1]; transfected K562 or 721.221 cells, two individual experiments) is on record?
The IC50 was 8200 nM.

Which IC50 (Patr-A*03∶01 [1]; [3]) does the source give for VAATLGFGAYMSKAH [p59] here?
The IC50 was 60 nM.

With “standardized competitor peptide of Patr-A*03∶01: unlabeled peptide of the A*03∶01 indicator peptide, used as competitor (ATALECVYK; Unlabeled: no biotin on Cys6, which carries biotin in the indicator form)” as the compound, how does the IC50 (Patr-A*03∶01 [2]) read?
Its IC50 is 1500 nM.
